According to PubChem BioAssay AID2060490 (Molecular Pharmacology Branch, DTP, NCI, 2025):
“And” between values parts separate entries of the source, which are not always exact repeats. Equal values may be shown once.

Test system: 885512-296-R-J2-PDC complex spheroid viability
Test: Anticancer human tumor 885512-296-R-J2-PDC patient-derived breast carcinoma cell line growth inhibition [GQUAD]
Details: for viability, T/C: stronger effect = lower value; for IC50: curve of compound
Source text: DNA G-quadruplex Stabilizer Agents in Combinations in Complex Spheroids
A high-throughput screen of multi-cell type tumor spheroids was designed to identify active combinations of DNA G-quadruplex stabilizer agents and targeted small molecules. Complex spheroids include a stromal component modeled by human endothelial cells (HUVEC) and fibroblasts modeled by human mesenchymal stem cells (MSCs). The concentration ranges selected for each drug and investigational agent were based upon clinically achievable concentrations if the clinical Cmax of the agent was known.
Compounds. The drugs and investigational agents: pidnarulex (CX-5461; NSC782164), APTO-253 (NSC789042), BRACO-19 (NSC847499), peposertib (NSC802822), ceralasertib (NSC780249), elimusertib (NSC800525), camonsertib (NSC841442), AZD-1390 (NSC803789), olaparib (NSC753686), talazoparib (NSC767125), ART-558 (NSC835418), sotorasib (NSC818433), MRTX-1133 (NSC836407), SN-38 (NSC673596), topotecan (NSC609699), etoposide (NSC141540), doxorubicin (NSC123127), gemcitabine (NSC613327), 5-fluorouracil (NSC19893), paclitaxel (NSC125973), vemurafenib (NSC761431), panobinostat (NSC761190), R-306465 (JNJ-16241199; NSC773264), adavosertib (NSC754352), TP-3654 (NSC805149), carboplatin (NSC241240), KSQ-4279 (NSC840948), and staurosporine (NSC755774) were obtained from the National Cancer Institute (NCI) Developmental Therapeutics Program Chemical Repository (34). The FDA-approved anticancer drug set is available from the NCI Developmental Therapeutics Program. […] The stock solutions were prepared in dimethyl sulfoxide (DMSO, Sigma-Aldrich, St. Louis, MO, cat. D2650) at 800-fold the tested concentration and stored at -70 degrees C prior to their use. All drugs and investigational agents were tested over a range starting from a high concentration at or near the clinical Cmax and decreasing in half-log increments. If the clinical Cmax for an agent had not been determined, the highest concentration tested was 10 microM.
2.3 Cell Culture. All cells were maintained in an incubator at 37 degrees C and 5% CO2 with 95% humidity. The PDC lines were cultured according to standard operating procedures established by the NCI PDMR. All PDCs were thawed and cultured in Matrigel-coated flasks prepared with a working solution of 1X Ham's F-12 nutrient mix, without supplementation (Invitrogen, cat. 11765054), 100 U/mL penicillin-streptomycin (Invitrogen, cat. 15140122), and 2.5% Matrigel (Corning Inc., cat. 354248) for the first three passages. The 857933-349-R-J2-PDC line was cultured in 6C/Colon 1B media, which includes advanced DMEM/F-12 (Thermo Fisher Scientific, cat. 12634028), 10 mM HEPES (Thermo Fisher Scientific, cat. 15630080), 1X GlutaMAX supplement (Thermo Fisher Scientific, cat. 35050061), 0.1 mg/mL primocin (InvivoGen, cat. ant-pm-2), 10% defined fetal bovine serum, heat inactivated (HyClone Laboratories Inc., cat. SH30070.03HI), 50% L-WRN conditioned media (ATCC, cat. CRL-3276), 1.25 mM N-Acetyl-L-cysteine (Sigma-Aldrich, cat. A9165), 10 mM nicotinamide (Sigma-Aldrich, cat. N0636), 1X B-27 supplement (Thermo Fisher Scientific, cat. 17504044), 1X N-2 supplement (Thermo Fisher Scientific, cat. 17502048), 10 microM Y-27632 dihydrochloride (Tocris Bioscience, cat. 1254), and 50 ng/mL human EGF recombinant protein (Thermo Fisher Scientific, cat. PHG0311). The 485176-168-R4-J1-PDC line was cultured in Panc media, which includes all 6C/Colon 1B media components plus 100 ng/mL human FGF-10 (Thermo Fisher Scientific, cat. 100-26), 500 nM SB-431542 (Selleckchem, cat. S1067), and gastrin (Tocris, cat. 3006).
[…]
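Further: spheroids exposed to the compounds for one week.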
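Wherever viability, T/C is given: percent of tumor spheroid viability relative to DMSO vehicle control wells.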

**Q.** Which results are given for `C#Cc1c(F)ccc2cc(O)cc(-c3ncc4c(N5CC6CCC(C5)N6)nc(OCC56CCCN5CC(F)C6)nc4c3F)c12` (stereo not given)?
**A.** viability, T/C (compound 0.0316 µM): 107% and 90.4% and 97.3%; viability, T/C (compound 0.1 µM): 97.7% and 92% and 97.9%; viability, T/C (compound 0.316 µM): 109% and 86.7% and 97.7%; viability, T/C (compound 1 µM): 90.1% and 70.5% and 98.3%; viability, T/C (compound 3.16 µM): 106% and 14% and 100%; viability, T/C (compound 10 µM): 83.4% and 22.4% and 90.7%; IC50: > 10000 nM and 1570 nM

**Q.** Which results are given for `C=CC(=O)N1CCN(c2nc(=O)n(-c3c(C)ccnc3C(C)C)c3nc(-c4c(O)cccc4F)c(F)cc23)C(C)C1` (stereo not given)?
**A.** viability, T/C (compound 0.0316 µM): 99% and 103% and 101%; viability, T/C (compound 0.1 µM): 91% and 94.9% and 108%; viability, T/C (compound 0.316 µM): 109% and 105% and 97.4%; viability, T/C (compound 1 µM): 109% and 98.9% and 95.3%; viability, T/C (compound 3.16 µM): 99.7% and 103% and 91.2%; viability, T/C (compound 10 µM): 96.4% (2×) and 95.7%; IC50: > 10000 nM

**Q.** `C=CCn1c(=O)c2cnc(Nc3ccc(N4CCN(C)CC4)cc3)nc2n1-c1cccc(C(C)(C)O)n1` was tested. Which viability, T/C (compound 0.0316 µM) did it give?
**A.** Its viability, T/C is 94.9% and 110% and 103%.

**Q.** What about the viability, T/C (compound 0.1 µM) of the same molecule?
**A.** Its viability, T/C is 92.2% and 91.9% and 92.6%.

**Q.** What about the viability, T/C (compound 0.316 µM) of the same molecule?
**A.** Its viability, T/C is 99.1% and 52.3% and 57.8%.

**Q.** And the viability, T/C (compound 1 µM)?
**A.** Its viability, T/C is 125% and 7.26% and 11%.

**Q.** Which results are given for `CC(=O)O[C@H]1C(=O)[C@@]2(C)[C@H]([C@H](OC(=O)c3ccccc3)[C@]3(O)C[C@H](OC(=O)[C@H](O)[C@@H](NC(=O)c4ccccc4)c4ccccc4)C(C)=C1C3(C)C)[C@]1(OC(C)=O)CO[C@@H]1C[C@@H]2O`?
**A.** viability, T/C (compound 0.0316 µM): 79.3% and 9.94% and 12.2%; viability, T/C (compound 0.316 µM): 21.6% and 4.6% and 3.99%; viability, T/C (compound 1 µM): 2.5% and 3.51% and 4.61%; viability, T/C (compound 3.16 µM): 0.25% and 3.46% and 2.82%; viability, T/C (compound 10 µM): 0.14% and 3.66% and 4.04%; IC50: 113 nM and < 31.6 nM

**Q.** Which results are given for `CC(C)(O)C1CCC(Nc2ccc3ncc(-c4cccc(C(F)(F)F)c4)n3n2)CC1` (stereo not given)?
**A.** viability, T/C (compound 0.0316 µM): 102% and 97.2% and 101%; viability, T/C (compound 0.1 µM): 93.2% and 94.8% and 101%; viability, T/C (compound 0.316 µM): 95.9% and 90.2% and 100%; viability, T/C (compound 1 µM): 89.1% and 67.6% and 76.8%; viability, T/C (compound 3.16 µM): 102% and 16.3% and 16.4%; viability, T/C (compound 10 µM): 84.3% and 28.2% and 20.7%; IC50: > 10000 nM and 1560 nM and 1700 nM

**Q.** With `CC(C)n1c(=O)n(C)c2cnc3cc(F)c(-c4ccc(OCCCN5CCCCC5)nc4)cc3c21` as the molecule, how does the viability, T/C (compound 0.0316 µM) read?
**A.** Its viability, T/C is 88.8% and 89% and 85.8%.

**Q.** What about the viability, T/C (compound 0.1 µM) of the same molecule?
**A.** Its viability, T/C is 97% and 84.5% and 80.4%.

**Q.** What about the viability, T/C (compound 0.316 µM) of the same molecule?
**A.** The viability, T/C was 88% and 93.7% and 77.8%.

**Q.** What about the viability, T/C (compound 1 µM) of the same molecule?
**A.** The viability, T/C was 85.8% and 90.9% and 79.7%.

**Q.** And the viability, T/C (compound 3.16 µM)?
**A.** The viability, T/C was 104% and 97.5% and 90.3%.

**Q.** And the viability, T/C (compound 10 µM)?
**A.** Its viability, T/C is 100% and 105% and 104%.

**Q.** And the IC50?
**A.** The IC50 was > 10000 nM.

**Q.** For `CC1COCCN1c1cc(-c2ccnn2C)c2ccnc(-c3ccn[nH]3)c2n1` (stereo not given), which viability, T/C (compound 0.0316 µM) is on record?
**A.** The viability, T/C was 48% and 48.8% and 42.3%.

**Q.** What about the viability, T/C (compound 0.1 µM) of the same molecule?
**A.** The viability, T/C was 6.72% and 6.01% and 7.2%.

**Q.** And the viability, T/C (compound 0.316 µM)?
**A.** The viability, T/C was 2.82% and 3.14% and 2.97%.

**Q.** What about the viability, T/C (compound 1 µM) of the same molecule?
**A.** The viability, T/C was 3.36% and 4.09% and 3.06%.

**Q.** What about the viability, T/C (compound 3.16 µM) of the same molecule?
**A.** Its viability, T/C is 4.39% and 4.91% and 5.11%.

**Q.** What about the viability, T/C (compound 10 µM) of the same molecule?
**A.** Its viability, T/C is 7.29% and 7.28% and 8.11%.

**Q.** What about the IC50 of the same molecule?
**A.** Its IC50 is < 31.6 nM.
